Here are results for 5 molecules from ChEMBL document CHEMBL1201862, “PubChem BioAssay data set” (2004).

Active and inactive are the calls of the source.

Common to all, as to type: functional
The nature of assay [1]: viability of HCT116 lacking mutant beta-catenin – cell-based, human colon tumor, dose response (AID 1045).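 Note: HCT116 colon tumor cells with beta catenin knocked out; cells exposed to compound for 60 hours.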
A short description of another assay: cells.
Assay [2] is described as follows: viability of PTEN-deleted HCT116 cells – cell-based, HCT116 PTEN knockout, dose response (AID 1047).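 Note: HCT116 colon tumor cells with PTEN knocked out; cells exposed to compound for 60 hours before readout; potency for loss of cell viability measured by luminescence.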
Assay [3] concerns the target Serine/threonine-protein kinase TBK1 (Homo sapiens, UniProt Q9UHD2). The experiment in a line: Navigating the Kinome. Panel member name: TBK1.
The target in assay [4] is Mitogen-activated protein kinase 14 (Homo sapiens, UniProt Q16539).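 Note: part of a kinome-wide panel, MAPK14 entry.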
In assay [5] the target is Mitogen-activated protein kinase kinase kinase kinase 4 (Homo sapiens, UniProt O95819).
For assay [6], the target named is Dual specificity mitogen-activated protein kinase kinase 2 (Homo sapiens, UniProt P36507). The experiment in a line: Navigating the Kinome. Panel member name: MAP2K2.
Assay [7] addresses Cyclin-dependent kinase 7 (Homo sapiens, UniProt P50613).
The target of another assay is Aurora kinase B (Homo sapiens, UniProt Q96GD4).
For assay [8], the target named is Fibroblast growth factor receptor 1 (Homo sapiens, UniProt P11362).
Assay [9] addresses Serine/threonine-protein kinase pim-1 (Homo sapiens, UniProt P11309).
Assay [10] addresses Proto-oncogene tyrosine-protein kinase receptor Ret (Homo sapiens, UniProt P07949).
In assay [11] the target is T1, cAMP-dependent protein kinase catalytic subunit PRKX (Homo sapiens, UniProt P51817).
T1 sequence (P51817 whole entry): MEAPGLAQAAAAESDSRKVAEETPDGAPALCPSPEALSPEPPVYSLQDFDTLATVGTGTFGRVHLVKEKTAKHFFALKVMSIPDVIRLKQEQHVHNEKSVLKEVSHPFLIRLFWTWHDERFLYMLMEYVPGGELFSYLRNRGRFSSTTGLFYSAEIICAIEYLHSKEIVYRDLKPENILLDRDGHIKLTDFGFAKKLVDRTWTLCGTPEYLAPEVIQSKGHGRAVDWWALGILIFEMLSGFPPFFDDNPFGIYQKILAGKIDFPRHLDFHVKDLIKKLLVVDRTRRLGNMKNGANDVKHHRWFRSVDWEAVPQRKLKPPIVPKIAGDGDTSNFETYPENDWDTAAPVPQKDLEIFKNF

The target of assay [12] is Dual specificity tyrosine-phosphorylation-regulated kinase 1B (Homo sapiens, UniProt Q9Y463). Description: Navigating the Kinome. Panel member name: DYRK1B.
In a further assay the target is T2, Activin receptor type-1 (Homo sapiens, UniProt Q04771).
T2 sequence (Q04771 whole entry): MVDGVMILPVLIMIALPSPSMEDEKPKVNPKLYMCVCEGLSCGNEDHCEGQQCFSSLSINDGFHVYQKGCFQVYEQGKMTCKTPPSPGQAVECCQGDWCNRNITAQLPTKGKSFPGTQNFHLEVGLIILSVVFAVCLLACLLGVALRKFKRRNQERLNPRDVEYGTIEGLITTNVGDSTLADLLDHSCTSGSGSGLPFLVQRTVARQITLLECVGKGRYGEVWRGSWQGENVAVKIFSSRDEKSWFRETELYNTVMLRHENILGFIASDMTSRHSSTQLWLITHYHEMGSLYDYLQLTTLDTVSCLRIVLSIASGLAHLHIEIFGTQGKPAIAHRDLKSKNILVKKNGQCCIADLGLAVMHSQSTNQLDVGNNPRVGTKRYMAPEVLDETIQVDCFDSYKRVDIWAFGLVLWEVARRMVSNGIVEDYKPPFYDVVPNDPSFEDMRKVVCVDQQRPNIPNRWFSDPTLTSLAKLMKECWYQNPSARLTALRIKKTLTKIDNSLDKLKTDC
The experiment in a line: Navigating the Kinome. Panel member name: ACVR1.

The target in assay [13] is Vascular endothelial growth factor receptor 2 (Homo sapiens, UniProt P35968).
In assay [14] the target is T3, Receptor-type tyrosine-protein kinase FLT3 (Homo sapiens, UniProt P36888).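 Note: FLT3 was tested as one member of a kinome-wide kinase panel.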
T3 sequence (P36888 whole entry): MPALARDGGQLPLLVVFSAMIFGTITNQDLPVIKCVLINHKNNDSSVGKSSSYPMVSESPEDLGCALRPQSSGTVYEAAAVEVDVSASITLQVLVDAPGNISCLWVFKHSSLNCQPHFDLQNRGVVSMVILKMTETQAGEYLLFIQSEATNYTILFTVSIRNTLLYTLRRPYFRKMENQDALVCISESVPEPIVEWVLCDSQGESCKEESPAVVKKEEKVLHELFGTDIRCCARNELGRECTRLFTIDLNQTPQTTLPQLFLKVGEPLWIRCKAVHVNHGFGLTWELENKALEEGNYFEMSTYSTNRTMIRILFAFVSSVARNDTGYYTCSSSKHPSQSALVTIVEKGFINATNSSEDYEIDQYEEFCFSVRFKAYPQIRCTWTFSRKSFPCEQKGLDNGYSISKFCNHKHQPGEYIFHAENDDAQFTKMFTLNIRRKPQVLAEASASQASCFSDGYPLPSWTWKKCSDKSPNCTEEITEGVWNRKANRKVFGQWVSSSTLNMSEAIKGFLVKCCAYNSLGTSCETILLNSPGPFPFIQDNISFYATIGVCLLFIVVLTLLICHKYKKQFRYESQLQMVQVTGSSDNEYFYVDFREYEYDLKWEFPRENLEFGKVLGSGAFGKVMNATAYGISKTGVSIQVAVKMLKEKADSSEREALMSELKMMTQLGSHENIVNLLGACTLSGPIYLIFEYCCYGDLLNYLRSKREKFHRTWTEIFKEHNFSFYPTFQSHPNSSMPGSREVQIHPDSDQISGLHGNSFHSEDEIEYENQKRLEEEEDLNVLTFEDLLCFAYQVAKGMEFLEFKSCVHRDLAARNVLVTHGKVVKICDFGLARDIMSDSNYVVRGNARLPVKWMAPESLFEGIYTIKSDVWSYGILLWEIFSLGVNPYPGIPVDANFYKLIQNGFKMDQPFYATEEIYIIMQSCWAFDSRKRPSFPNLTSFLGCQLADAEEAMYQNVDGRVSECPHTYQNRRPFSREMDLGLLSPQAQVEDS

Assay [15] concerns the target Macrophage-stimulating protein receptor (Homo sapiens, UniProt Q04912). Description: Navigating the Kinome. Panel member name: MST1R.
The next assay addresses Aurora kinase A (Homo sapiens, UniProt O14965).
For assay [16], the target named is Tyrosine-protein kinase ABL1 (Homo sapiens, UniProt P00519).

Fibroblast growth factor receptor 1, sequence (P11362 whole entry): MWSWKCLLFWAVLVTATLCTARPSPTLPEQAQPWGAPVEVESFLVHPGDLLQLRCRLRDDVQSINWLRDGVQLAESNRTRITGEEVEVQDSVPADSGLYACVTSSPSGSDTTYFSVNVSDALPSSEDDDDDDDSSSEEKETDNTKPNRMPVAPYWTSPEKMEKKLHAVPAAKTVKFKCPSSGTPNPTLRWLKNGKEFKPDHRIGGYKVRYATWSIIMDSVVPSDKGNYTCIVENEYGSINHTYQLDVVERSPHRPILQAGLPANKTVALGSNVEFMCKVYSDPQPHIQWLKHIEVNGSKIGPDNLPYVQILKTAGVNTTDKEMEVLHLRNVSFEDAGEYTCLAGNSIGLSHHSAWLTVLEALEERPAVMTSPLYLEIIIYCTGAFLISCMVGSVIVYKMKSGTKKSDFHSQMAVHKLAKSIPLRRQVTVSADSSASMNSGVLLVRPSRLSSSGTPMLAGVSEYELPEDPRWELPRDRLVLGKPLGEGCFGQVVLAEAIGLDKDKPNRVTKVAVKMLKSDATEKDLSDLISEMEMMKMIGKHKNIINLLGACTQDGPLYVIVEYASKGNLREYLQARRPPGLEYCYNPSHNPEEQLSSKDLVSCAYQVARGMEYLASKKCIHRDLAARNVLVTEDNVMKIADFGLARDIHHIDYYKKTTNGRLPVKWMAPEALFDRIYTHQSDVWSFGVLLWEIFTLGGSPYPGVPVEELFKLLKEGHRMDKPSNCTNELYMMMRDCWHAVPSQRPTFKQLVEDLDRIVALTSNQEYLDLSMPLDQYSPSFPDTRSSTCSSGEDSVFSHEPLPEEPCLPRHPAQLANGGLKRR
Vascular endothelial growth factor receptor 2, sequence (P35968 whole entry): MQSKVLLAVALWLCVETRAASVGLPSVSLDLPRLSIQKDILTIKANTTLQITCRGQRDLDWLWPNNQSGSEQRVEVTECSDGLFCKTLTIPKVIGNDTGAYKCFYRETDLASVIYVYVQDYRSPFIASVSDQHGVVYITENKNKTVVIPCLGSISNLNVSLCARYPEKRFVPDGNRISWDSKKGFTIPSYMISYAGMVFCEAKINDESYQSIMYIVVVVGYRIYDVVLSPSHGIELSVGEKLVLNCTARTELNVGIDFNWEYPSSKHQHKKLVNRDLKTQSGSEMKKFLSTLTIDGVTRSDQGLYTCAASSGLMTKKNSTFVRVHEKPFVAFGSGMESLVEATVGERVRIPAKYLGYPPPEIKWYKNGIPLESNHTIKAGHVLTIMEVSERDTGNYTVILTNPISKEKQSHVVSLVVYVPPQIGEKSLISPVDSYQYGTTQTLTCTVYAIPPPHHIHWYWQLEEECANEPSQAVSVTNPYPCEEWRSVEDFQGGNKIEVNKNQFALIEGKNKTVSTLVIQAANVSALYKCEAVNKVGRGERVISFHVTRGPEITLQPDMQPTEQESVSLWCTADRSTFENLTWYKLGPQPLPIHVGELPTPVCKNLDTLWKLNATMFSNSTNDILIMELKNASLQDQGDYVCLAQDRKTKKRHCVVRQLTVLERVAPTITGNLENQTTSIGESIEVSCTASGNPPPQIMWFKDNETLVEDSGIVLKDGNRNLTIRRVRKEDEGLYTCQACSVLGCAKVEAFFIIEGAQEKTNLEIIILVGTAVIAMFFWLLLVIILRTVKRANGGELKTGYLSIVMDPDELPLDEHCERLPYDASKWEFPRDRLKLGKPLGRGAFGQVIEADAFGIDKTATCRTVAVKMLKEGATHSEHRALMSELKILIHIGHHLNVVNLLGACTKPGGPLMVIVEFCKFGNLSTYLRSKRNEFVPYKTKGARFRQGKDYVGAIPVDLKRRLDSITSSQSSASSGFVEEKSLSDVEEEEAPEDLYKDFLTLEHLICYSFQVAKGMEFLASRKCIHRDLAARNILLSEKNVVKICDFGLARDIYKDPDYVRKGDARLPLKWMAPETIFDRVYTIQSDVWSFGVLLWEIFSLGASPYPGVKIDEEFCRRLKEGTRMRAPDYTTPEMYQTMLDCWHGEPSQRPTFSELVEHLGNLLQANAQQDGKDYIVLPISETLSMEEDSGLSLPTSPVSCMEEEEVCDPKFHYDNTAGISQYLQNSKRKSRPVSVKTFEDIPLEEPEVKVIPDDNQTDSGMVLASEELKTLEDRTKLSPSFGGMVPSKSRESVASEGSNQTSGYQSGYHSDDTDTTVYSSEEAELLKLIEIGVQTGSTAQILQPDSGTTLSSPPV
Dual specificity tyrosine-phosphorylation-regulated kinase 1B, sequence (Q9Y463 whole entry): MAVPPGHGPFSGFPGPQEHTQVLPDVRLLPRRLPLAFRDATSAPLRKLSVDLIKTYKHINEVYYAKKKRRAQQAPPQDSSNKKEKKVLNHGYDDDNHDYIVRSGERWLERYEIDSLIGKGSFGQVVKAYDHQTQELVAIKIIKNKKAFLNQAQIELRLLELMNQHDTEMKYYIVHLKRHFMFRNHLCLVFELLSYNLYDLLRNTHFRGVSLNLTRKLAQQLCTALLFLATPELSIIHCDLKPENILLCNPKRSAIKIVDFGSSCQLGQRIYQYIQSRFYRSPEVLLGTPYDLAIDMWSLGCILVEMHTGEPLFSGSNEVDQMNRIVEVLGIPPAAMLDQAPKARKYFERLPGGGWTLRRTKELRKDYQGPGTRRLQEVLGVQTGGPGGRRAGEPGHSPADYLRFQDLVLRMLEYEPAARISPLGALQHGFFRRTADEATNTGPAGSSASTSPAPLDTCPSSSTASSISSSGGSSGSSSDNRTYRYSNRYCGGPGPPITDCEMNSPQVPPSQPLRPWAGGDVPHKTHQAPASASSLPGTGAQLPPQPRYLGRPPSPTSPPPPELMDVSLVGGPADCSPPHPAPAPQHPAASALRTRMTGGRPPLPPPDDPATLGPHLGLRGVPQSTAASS
Cyclin-dependent kinase 7, sequence (P50613 whole entry): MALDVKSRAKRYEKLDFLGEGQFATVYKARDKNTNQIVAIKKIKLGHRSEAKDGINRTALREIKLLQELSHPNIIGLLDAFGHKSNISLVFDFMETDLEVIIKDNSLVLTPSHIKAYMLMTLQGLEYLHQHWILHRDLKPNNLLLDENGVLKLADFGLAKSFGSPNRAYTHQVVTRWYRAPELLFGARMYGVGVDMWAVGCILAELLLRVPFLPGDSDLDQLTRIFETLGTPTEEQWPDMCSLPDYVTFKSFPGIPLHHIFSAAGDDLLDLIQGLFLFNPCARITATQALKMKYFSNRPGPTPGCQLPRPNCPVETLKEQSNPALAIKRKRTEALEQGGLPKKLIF
Serine/threonine-protein kinase pim-1, sequence (P11309 whole entry): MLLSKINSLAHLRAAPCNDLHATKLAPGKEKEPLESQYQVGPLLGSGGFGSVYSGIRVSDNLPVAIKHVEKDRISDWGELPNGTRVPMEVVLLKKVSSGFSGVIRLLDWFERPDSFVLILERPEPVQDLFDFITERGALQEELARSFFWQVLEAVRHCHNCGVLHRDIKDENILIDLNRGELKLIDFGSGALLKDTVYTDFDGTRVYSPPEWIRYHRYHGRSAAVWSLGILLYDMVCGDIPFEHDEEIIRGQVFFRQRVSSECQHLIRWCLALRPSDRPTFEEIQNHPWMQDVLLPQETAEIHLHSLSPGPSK
Mitogen-activated protein kinase kinase kinase kinase 4, sequence (O95819 whole entry): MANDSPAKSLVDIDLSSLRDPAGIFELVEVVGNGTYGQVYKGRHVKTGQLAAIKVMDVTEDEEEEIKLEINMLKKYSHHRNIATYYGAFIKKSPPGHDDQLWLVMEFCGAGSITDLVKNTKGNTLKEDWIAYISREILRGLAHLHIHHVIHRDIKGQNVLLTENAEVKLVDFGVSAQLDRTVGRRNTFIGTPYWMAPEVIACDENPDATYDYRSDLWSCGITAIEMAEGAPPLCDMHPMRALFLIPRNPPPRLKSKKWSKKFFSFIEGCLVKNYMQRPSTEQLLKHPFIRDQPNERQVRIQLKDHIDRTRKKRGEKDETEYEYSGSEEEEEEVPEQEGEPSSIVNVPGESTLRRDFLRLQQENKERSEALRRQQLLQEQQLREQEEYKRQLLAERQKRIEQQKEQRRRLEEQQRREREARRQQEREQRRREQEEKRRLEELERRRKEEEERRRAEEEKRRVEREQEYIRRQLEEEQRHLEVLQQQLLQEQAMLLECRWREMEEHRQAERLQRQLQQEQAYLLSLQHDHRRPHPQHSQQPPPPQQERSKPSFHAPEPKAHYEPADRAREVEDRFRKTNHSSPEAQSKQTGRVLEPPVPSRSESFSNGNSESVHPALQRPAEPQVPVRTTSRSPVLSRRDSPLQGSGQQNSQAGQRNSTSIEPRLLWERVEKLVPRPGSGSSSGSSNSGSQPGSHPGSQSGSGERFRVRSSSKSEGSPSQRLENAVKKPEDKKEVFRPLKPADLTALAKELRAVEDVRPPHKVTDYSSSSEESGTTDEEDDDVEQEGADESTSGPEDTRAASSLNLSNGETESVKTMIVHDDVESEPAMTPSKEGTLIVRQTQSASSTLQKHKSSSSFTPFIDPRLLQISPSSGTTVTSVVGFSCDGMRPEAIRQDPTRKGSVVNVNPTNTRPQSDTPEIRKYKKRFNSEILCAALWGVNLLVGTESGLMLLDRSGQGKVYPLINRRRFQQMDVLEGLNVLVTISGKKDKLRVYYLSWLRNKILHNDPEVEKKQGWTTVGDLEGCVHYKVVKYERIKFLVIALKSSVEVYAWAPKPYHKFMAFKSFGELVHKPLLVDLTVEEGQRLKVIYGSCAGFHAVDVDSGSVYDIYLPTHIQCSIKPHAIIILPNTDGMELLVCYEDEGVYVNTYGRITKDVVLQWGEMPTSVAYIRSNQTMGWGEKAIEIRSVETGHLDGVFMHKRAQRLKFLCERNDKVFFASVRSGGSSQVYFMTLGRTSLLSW
Mitogen-activated protein kinase 14, sequence (Q16539 whole entry): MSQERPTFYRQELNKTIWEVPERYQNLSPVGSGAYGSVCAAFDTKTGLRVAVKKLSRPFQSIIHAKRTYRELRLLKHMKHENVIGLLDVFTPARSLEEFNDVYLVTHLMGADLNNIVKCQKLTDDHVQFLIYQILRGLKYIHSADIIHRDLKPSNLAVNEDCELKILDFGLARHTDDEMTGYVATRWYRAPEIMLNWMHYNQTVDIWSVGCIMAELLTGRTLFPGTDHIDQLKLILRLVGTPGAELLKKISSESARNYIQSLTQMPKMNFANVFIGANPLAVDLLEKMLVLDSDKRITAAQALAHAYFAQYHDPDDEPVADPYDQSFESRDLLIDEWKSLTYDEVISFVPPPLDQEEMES

For `CCOC(=O)c1ccc(NC2=CC(=O)C(=O)c3ccccc32)cc1`, the EC50 in [1] is 13800 nM (active); in [2] it was 15500 nM (active). Also, the IC50 in the assay “cells” is 19200 nM (active).

For the molecule `OC(CNCCC1C=Nc2ccccc21)Cn1c2ccc(Cl)cc2c2cc(Cl)ccc21` (stereo not given), the EC50 is 2700 nM (active) in [1] and 2730 nM (active) in [2].

`NC1CCC(Nc2nc(Cl)cc(-c3c[nH]c4ncccc34)n2)CC1` (stereo not given): the inhibition constant (Ki) is 2000 nM (active) in [3]; 2000 nM (active) in [4]; 20 nM (active) in [5]; 31.6 nM (active) in assay [6]; 50.1 nM (active) in [7]; 251 nM (active) on Aurora kinase B. Further, the Ki in [8] was 3980 nM (active); in assay [9], 126 nM (active); in assay [10], 2000 nM (active); in assay [11] it was 3.16 nM (active); in [12], 15.8 nM (active); at Activin receptor type-1, 631 nM (active). The Ki is 794 nM (active) in assay [13]; 6.31 nM (active) in [14]; 63.1 nM (active) in assay [15]; > 1580 nM (inactive) on Aurora kinase A; 1580 nM (active) in [16]. In addition, the pKi is 5.7 in assay [4]; 7.7 in assay [5]; 7.5 in [6]; 7.3 in assay [7]; 6.6 on Aurora kinase B; 5.4 in [8]. The pKi was 6.9 in [9]; 5.7 in [10]; 8.5 in [11]; 7.8 in assay [12]; 6.2 on Activin receptor type-1; 6.1 in assay [13]. Also, the values for the negative logarithm of the Ki (pKi) in assay [14], in [15] and in assay [16] were 8.2, 7.2 and 5.8, respectively.

Regarding `O=C(O)C1CN(Cc2ccc(OCc3ccccc3)cc2Cl)C1`, the Ki was > 3160 nM (inactive) in [3]; > 3980 nM (inactive) in [4]; > 5010 nM (inactive) in assay [5]; > 3980 nM (inactive) in assay [6]; > 3980 nM (inactive) in [7]; > 3980 nM (inactive) on Aurora kinase B. Also, the Ki was > 3980 nM (inactive) in assay [8]; > 6310 nM (inactive) in assay [9]; > 3160 nM (inactive) in [10]; 1260 nM (active) in assay [11]; > 2510 nM (inactive) in [12]; 126 nM (active) at Activin receptor type-1. Moreover, the Ki in [13] is > 2510 nM (inactive); in [14] it was > 3160 nM (inactive); in [15], > 3980 nM (inactive); on Aurora kinase A it was > 1580 nM (inactive); in assay [16], > 2510 nM (inactive).

On to `Cc1ccccc1-c1cc2c(nn1)-c1ccccc1C2=O`, for which the half-inhibitory concentration (IC50) in “cells” is 14700 nM (active).
